Legend:
DIPGX29 [1] = H3.3 K27M diffuse intrinsic pontine glioma line; experiment: EC50 (inflection of fitted growth-inhibition curve) (log10 M)
Method in brief: (§1)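 Patient-derived pHGG/DIPG cell lines and astrocyte controls were grown on 1% Geltrex-coated 384-well plates and exposed by pin tool to a 10-point threefold dilution series (mean top concentration 35 μM), in triplicate. Exposure was 7 days (iAstro 3 days) at 37 °C, 5% CO2. CellTiter-Glo luminescence was log2-transformed, normalised per plate to % activity between negative (solvent) and positive control wells, and pooled. EC50 and maximal response (yFin) come from the lowest-AICc three- or four-parameter log-logistic fit.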

DIPGX37 [2] = H3.3 K27M diffuse intrinsic pontine glioma line; experiment: as above
Method in brief: as §1

DIPGX7 [3] = H3.3 K27M diffuse intrinsic pontine glioma line; experiment: as above
Method in brief: as §1

HGGX42 [4] = H3.3 G34R paediatric high-grade glioma line; experiment: as above
Method in brief: as §1

SUDIPGXXI [5] = diffuse intrinsic pontine glioma line; experiment: as above
Method in brief: as §1

iAstro [6] = astrocyte control; experiment: as above
Method in brief: as §1

DIPGX29 [7] = experiment: maximal growth inhibition (yFin) relative to DMSO / staurosporine; higher = more efficacious
Method in brief: as §1

DIPGX37 [8] = experiment: as above
Method in brief: as §1

DIPGX7 [9] = experiment: as above
Method in brief: as §1

HGGX42 [10] = experiment: as above
Method in brief: as §1

SUDIPGXXI [11] = experiment: as above
Method in brief: as §1

iAstro [12] = experiment: as above
Method in brief: as §1

DIPGX29 [13] = experiment: area under dose-response curve of % growth inhibition (log2 RLU vs DMSO / staurosporine), 1e-11 to 1e-4 M (% x log10 M); higher = more growth inhibition
Method in brief: (§2)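 On 1% Geltrex-coated 384-well plates, patient-derived pHGG/DIPG cell lines and astrocytes were treated in triplicate across 10 threefold dilutions (mean top concentration 35 μM) for 7 days, with iAstro treated for 3 days, at 37 °C, 5% CO2. Log2-transformed CellTiter-Glo luminescence was normalised per plate to % activity between solvent and positive controls. Area under the curve was obtained by the trapezoid rule from a log-logistic fit, or from a smoothing spline when that fit failed.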

DIPGX37 [14] = experiment: as above
Method in brief: as §2

DIPGX7 [15] = experiment: as above
Method in brief: as §2

DIPGX9 [16] = diffuse intrinsic pontine glioma line; experiment: as above
Method in brief: as §2

HABS [17] = astrocyte control; experiment: as above
Method in brief: as §2

HGGX2 [18] = paediatric high-grade glioma line; experiment: as above
Method in brief: as §2

HGGX39 [19] = paediatric high-grade glioma line; experiment: as above
Method in brief: as §2

HGGX42 [20] = experiment: as above
Method in brief: as §2

HGGX6 = H3.3 G34R paediatric high-grade glioma line; experiment: as above
Method in brief: as §2

SUDIPGIV [21] = diffuse intrinsic pontine glioma line; experiment: as above
Method in brief: as §2

SUDIPGVI = diffuse intrinsic pontine glioma line; experiment: as above
Method in brief: as §2

SUDIPGXIII = diffuse intrinsic pontine glioma line; experiment: as above
Method in brief: as §2

SUDIPGXIX [22] = diffuse intrinsic pontine glioma line; experiment: as above
Method in brief: as §2

SUDIPGXVII [23] = diffuse intrinsic pontine glioma line; experiment: as above
Method in brief: as §2

SUDIPGXXI [24] = experiment: as above
Method in brief: as §2

iAstro [25] = experiment: as above
Method in brief: as §2

DIPGX9 [26] = experiment: EC50 (inflection of fitted growth-inhibition curve) (log10 M)
Method in brief: as §1

HABS [27] = experiment: as above
Method in brief: as §1

HGGX2 [28] = experiment: as above
Method in brief: as §1

HGGX39 [29] = experiment: as above
Method in brief: as §1

SUDIPGIV [30] = experiment: as above
Method in brief: as §1

SUDIPGXIX [31] = experiment: as above
Method in brief: as §1

SUDIPGXVII [32] = experiment: as above
Method in brief: as §1

DIPGX9 [33] = experiment: maximal growth inhibition (yFin) relative to DMSO / staurosporine; higher = more efficacious
Method in brief: as §1

HABS [34] = experiment: as above
Method in brief: as §1

HGGX2 [35] = experiment: as above
Method in brief: as §1

HGGX39 [36] = experiment: as above
Method in brief: as §1

SUDIPGIV [37] = experiment: as above
Method in brief: as §1

SUDIPGXIX [38] = experiment: as above
Method in brief: as §1

SUDIPGXVII [39] = experiment: as above
Method in brief: as §1

| SMILES | EC50 (log10 M) (DIPGX29 [1]) | EC50 (log10 M) (SUDIPGXXI [5]) | EC50 (log10 M) (iAstro [6]) | maximal growth inhibition (SUDIPGXXI [11]) [%] | maximal growth inhibition (iAstro [12]) [%] | area under dose-response curve (DIPGX29 [13]) | area under dose-response curve (DIPGX37 [14]) | area under dose-response curve (DIPGX7 [15]) | area under dose-response curve (DIPGX9 [16]) | area under dose-response curve (HABS [17]) | area under dose-response curve (HGGX39 [19]) | area under dose-response curve (HGGX42 [20]) | area under dose-response curve (HGGX6) | area under dose-response curve (SUDIPGIV [21]) | area under dose-response curve (SUDIPGVI) | area under dose-response curve (SUDIPGXIII) | area under dose-response curve (SUDIPGXIX [22]) | area under dose-response curve (SUDIPGXVII [23]) | area under dose-response curve (SUDIPGXXI [24]) | area under dose-response curve (iAstro [25]) | also measured |
| --- | --- | --- | --- | --- | --- | --- | --- | --- | --- | --- | --- | --- | --- | --- | --- | --- | --- | --- | --- | --- | --- |
| Fc1ccc(N2CCN(CCC3OCCc4ccccc43)CC2)cc1 (stereo not given) | -5.02 | -5.02 | -5.03 | 57.5 | 23.3 | 27.2 | 33.4 | 37.3 | 13.4 | 1.16 | 18.1 | 37.8 | 14.9 | 15.7 | 12.8 | 13.4 | 0 | 8.36 | 87.1 | 24 | EC50 (log10 M) (DIPGX37 [2]): -4.97; EC50 (log10 M) (DIPGX7 [3]): -4.91; EC50 (log10 M) (HGGX42 [4]): -4.98; maximal growth inhibition (DIPGX29 [7]): 26.6%; maximal growth inhibition (DIPGX37 [8]): 34.9%; maximal growth inhibition (DIPGX7 [9]): 40.7%; maximal growth inhibition (HGGX42 [10]): 38.6%; area under dose-response curve (HGGX2 [18]): 15.4 |
| O=C1NC(=O)C(c2cnc3ccccn23)=C1c1cn2c3c(cc(F)cc13)CN(C(=O)N1CCCCC1)CC2 | -4.49 | -6.42 | -5.34 | 112 | 45.8 | 42 | 24.1 | 6.78 | 64 | 199 | 70.9 | 72.1 | 30.8 | 300 | 6.26 | 6.37 | 37 | 16.9 | 277 | 66.3 | EC50 (log10 M) (DIPGX37 [2]): -4.48; EC50 (log10 M) (DIPGX9 [26]): -4.66; EC50 (log10 M) (HABS [27]): -7.93; EC50 (log10 M) (HGGX2 [28]): -4.66; EC50 (log10 M) (HGGX39 [29]): -6.42; EC50 (log10 M) (HGGX42 [4]): -5.13; EC50 (log10 M) (SUDIPGIV [30]): -8.3; EC50 (log10 M) (SUDIPGXIX [31]): -5.7; EC50 (log10 M) (SUDIPGXVII [32]): -4.97; maximal growth inhibition (DIPGX29 [7]): 49.3%; maximal growth inhibition (DIPGX37 [8]): 52.1%; maximal growth inhibition (DIPGX9 [33]): 97.2%; maximal growth inhibition (HABS [34]): 50.7%; maximal growth inhibition (HGGX2 [35]): 40.7%; maximal growth inhibition (HGGX39 [36]): 35.2%; maximal growth inhibition (HGGX42 [10]): 60.7%; maximal growth inhibition (SUDIPGIV [37]): 69.8%; maximal growth inhibition (SUDIPGXIX [38]): 24.1%; maximal growth inhibition (SUDIPGXVII [39]): 22.3%; area under dose-response curve (HGGX2 [18]): 27 |
| Cc1nc(Nc2ncc(C(=O)Nc3c(C)cccc3Cl)s2)cc(N2CCN(CCO)CC2)n1 [DASATINIB] |  | -4.85 | -4.82 | 110 | 34.9 | 54.9 | 39.6 | 26.2 | 80 | 143 | 77.5 | 83.4 | 61.1 | 60.9 | 12 | 16.1 | 51.9 | 22 | 109 | 27.6 | EC50 (log10 M) (DIPGX7 [3]): -4.59; EC50 (log10 M) (DIPGX9 [26]): -4.85; EC50 (log10 M) (HGGX39 [29]): -5.3; EC50 (log10 M) (SUDIPGXIX [31]): -4.77; maximal growth inhibition (DIPGX7 [9]): 28.2%; maximal growth inhibition (DIPGX9 [33]): 64.4%; maximal growth inhibition (HGGX39 [36]): 41.3%; maximal growth inhibition (SUDIPGXIX [38]): 50.4% |
